Drawing on publication PMC12136037, “Type II kinase inhibitors that target Parkinson’s disease–associated LRRK2” (Science Advances, 2025), this text covers dTm for 14 molecules.

What all share (test): DSF 100 kinase selectivity screen;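 also: compound tested at 20 µM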
What all share (type): binding

For assay [1], the target named is T1, ~100 representative kinases (Homo sapiens, UniProt O14976).
T1 construct: Recombinant protein kinase domains with a concentration of 2 μM
T1 sequence (O14976 1-1311): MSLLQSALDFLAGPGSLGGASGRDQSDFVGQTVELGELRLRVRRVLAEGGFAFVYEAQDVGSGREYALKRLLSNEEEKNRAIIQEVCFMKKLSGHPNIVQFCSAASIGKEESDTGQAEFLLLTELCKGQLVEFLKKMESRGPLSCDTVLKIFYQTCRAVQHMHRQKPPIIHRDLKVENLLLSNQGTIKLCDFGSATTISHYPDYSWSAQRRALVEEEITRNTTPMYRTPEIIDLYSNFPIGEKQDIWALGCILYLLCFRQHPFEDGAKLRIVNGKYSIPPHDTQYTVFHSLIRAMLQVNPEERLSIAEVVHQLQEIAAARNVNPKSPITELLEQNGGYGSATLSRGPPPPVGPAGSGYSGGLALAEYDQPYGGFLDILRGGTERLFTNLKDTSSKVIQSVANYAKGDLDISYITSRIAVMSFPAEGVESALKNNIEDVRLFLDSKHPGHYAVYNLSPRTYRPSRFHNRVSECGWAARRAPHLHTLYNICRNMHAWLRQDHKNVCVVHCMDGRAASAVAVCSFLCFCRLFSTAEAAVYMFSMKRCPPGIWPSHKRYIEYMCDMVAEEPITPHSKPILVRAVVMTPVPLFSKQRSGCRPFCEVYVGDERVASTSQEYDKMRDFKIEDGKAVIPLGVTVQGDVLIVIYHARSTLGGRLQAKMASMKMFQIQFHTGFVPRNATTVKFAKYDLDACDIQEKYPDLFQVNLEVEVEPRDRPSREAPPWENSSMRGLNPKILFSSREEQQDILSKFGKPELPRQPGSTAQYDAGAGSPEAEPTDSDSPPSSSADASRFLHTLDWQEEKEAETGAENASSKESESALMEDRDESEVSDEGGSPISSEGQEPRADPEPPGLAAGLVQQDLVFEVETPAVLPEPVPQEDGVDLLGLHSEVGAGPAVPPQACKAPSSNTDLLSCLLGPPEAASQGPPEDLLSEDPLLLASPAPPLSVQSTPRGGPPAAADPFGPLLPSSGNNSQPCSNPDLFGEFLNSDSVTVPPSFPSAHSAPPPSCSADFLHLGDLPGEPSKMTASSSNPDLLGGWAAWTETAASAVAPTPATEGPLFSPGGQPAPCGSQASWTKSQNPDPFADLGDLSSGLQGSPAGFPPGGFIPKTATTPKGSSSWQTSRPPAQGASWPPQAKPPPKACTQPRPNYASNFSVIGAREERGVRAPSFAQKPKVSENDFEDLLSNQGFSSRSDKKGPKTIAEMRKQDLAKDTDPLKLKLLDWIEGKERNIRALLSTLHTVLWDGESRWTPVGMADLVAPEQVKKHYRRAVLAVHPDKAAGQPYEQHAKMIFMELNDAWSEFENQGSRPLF
The settings on record: protein GAK; average of three replicates. An outline of the steps: (§1)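 Each kinase domain, at 2 μM, is mixed with 20 μM test compound and SYPRO Orange in Hepes (20 mM, pH 7.5) with 500 mM NaCl. Temperature is then raised at 3°C/min and fluorescence-monitored unfolding yields the melting temperature change, ΔTm in degrees Celsius.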

In assay [2] the target is T2, ~100 representative kinases (Homo sapiens, UniProt P16083).
T2 construct: Recombinant protein kinase domains with a concentration of 2 μM
T2 sequence (P16083 1-231): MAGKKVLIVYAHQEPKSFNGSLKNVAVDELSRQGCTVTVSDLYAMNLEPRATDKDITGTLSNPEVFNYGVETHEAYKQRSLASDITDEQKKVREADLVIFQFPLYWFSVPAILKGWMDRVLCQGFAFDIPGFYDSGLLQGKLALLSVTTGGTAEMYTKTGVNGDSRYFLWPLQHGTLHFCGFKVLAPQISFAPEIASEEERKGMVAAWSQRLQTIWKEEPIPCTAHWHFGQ
Conditions: protein NQO2; average of three replicates. An outline of the steps:
as §1

Assay [3] deals with T3, ~100 representative kinases (Homo sapiens, UniProt P17948).
T3 construct: Recombinant protein kinase domains with a concentration of 2 μM
Conditions: protein FLT1; average of three replicates. The procedure, abridged:
as §1

For assay [4], the target named is T4, ~100 representative kinases (Homo sapiens, UniProt P24941).
T4 construct: Recombinant protein kinase domains with a concentration of 2 μM
Conditions: Protein CDK2; average of three replicates. An outline of the steps:
as §1

The target in assay [5] is T5, ~100 representative kinases (Homo sapiens, UniProt Q8TD08).
T5 construct: Recombinant protein kinase domains with a concentration of 2 μM
T5 sequence (Q8TD08 1-544): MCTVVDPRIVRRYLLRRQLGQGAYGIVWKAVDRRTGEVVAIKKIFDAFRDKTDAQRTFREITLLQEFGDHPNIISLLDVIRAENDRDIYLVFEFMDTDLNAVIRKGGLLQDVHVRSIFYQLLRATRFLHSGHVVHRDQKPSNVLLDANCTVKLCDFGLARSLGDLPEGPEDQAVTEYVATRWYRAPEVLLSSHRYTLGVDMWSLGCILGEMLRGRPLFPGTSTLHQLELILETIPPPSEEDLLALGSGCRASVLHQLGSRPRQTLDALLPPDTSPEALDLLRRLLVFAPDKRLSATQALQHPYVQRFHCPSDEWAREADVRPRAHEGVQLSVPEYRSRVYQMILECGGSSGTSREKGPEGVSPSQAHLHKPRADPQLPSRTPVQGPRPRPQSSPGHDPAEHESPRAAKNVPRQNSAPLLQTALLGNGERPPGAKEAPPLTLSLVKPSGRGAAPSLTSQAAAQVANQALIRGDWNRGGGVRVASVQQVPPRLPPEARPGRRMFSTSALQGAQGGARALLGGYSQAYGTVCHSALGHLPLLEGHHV
Conditions: protein MAPK15; average of three replicates. An outline of the steps:
as §1

Assay [6] addresses T6, ~100 representative kinases (Homo sapiens, UniProt Q96RR4).
T6 construct: Recombinant protein kinase domains with a concentration of 2 μM
The settings on record: Protein CAMKK2; average of three replicates. The procedure, abridged:
as §1

Assay [7] addresses T7, ~100 representative kinases (Homo sapiens, UniProt Q9NSY1).
T7 construct: Recombinant protein kinase domains with a concentration of 2 μM
The settings on record: Protein BMP2K; average of three replicates. The procedure, abridged:
as §1

SMILES strings stand for the structures.

T7 sequence (Q9NSY1 whole entry, the tested form may be a part): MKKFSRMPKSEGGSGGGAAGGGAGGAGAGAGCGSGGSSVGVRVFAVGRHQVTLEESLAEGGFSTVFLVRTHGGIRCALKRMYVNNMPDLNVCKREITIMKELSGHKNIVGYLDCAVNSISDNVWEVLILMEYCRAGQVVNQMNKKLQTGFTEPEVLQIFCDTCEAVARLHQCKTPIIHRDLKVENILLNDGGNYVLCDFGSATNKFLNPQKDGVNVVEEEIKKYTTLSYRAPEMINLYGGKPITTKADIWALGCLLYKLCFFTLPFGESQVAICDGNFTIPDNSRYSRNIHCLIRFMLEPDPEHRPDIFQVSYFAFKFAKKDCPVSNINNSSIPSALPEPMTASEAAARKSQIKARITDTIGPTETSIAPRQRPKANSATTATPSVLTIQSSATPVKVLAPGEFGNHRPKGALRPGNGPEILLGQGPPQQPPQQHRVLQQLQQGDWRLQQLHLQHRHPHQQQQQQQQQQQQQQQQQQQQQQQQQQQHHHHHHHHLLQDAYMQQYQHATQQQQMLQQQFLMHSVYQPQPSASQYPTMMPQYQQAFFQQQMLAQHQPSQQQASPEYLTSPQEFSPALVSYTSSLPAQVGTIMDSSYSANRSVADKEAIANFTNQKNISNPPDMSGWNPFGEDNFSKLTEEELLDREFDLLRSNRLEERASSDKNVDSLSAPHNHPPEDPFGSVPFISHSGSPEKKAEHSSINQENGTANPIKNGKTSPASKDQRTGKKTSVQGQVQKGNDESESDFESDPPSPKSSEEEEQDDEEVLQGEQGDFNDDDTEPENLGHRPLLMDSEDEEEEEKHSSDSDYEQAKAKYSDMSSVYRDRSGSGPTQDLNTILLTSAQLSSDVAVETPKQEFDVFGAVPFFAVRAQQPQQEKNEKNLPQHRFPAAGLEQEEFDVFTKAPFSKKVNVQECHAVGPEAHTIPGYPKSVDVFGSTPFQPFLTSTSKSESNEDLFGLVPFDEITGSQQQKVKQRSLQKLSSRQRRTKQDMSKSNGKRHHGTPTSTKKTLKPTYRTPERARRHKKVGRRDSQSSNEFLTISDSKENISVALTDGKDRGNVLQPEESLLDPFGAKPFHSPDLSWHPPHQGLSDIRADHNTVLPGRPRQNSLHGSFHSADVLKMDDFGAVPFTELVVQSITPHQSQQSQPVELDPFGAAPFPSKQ
T6 sequence (Q96RR4 whole entry, the tested form may be a part): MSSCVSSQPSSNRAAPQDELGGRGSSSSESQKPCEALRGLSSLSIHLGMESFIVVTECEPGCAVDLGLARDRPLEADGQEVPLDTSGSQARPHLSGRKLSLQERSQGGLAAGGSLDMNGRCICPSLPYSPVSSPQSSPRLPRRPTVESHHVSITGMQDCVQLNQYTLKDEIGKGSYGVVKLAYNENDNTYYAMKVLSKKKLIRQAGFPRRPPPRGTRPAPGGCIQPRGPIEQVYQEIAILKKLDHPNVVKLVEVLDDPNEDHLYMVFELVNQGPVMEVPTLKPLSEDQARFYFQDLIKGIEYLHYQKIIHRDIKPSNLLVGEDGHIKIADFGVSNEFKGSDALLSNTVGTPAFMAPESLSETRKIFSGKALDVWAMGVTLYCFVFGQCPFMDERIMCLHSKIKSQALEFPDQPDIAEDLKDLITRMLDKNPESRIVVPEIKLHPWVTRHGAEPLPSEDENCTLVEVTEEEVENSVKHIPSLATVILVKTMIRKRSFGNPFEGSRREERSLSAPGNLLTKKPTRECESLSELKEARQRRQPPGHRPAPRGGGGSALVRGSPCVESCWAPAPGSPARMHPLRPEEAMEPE
T3 sequence (P17948 27-1338): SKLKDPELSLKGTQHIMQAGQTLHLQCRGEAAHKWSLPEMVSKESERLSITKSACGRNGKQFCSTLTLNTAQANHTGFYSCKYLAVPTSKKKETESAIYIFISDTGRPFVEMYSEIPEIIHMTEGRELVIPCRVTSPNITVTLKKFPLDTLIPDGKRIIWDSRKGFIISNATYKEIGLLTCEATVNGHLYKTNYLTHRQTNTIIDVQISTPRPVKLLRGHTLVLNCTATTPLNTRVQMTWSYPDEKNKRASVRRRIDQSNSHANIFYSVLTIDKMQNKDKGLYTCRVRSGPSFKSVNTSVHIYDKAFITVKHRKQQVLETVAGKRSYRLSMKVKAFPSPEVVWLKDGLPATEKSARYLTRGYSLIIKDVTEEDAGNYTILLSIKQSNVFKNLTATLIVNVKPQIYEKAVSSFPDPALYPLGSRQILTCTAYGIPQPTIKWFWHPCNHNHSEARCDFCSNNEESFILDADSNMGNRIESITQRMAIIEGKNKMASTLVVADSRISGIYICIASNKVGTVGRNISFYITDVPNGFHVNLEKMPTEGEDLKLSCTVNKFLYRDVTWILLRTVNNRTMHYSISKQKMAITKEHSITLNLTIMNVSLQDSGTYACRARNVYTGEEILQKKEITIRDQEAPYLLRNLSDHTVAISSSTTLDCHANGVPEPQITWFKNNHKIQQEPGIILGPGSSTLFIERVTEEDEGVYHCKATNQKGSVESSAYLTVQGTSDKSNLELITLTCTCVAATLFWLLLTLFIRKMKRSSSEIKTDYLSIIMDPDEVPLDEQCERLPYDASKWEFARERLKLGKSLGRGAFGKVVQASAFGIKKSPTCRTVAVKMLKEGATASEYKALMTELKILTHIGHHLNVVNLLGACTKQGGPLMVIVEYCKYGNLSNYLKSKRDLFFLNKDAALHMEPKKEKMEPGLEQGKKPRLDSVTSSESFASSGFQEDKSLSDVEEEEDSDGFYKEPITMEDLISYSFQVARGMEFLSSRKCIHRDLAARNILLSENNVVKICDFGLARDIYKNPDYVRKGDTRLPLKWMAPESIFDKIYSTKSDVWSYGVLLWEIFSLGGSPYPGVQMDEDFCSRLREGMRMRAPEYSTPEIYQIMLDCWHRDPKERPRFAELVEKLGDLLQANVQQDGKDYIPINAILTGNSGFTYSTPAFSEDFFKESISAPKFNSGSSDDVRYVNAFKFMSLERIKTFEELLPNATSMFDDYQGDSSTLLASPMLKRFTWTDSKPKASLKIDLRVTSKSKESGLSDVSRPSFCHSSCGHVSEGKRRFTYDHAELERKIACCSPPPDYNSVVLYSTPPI

For `Cc1cc(NC(=O)C2(C(=O)Nc3ccc(F)cc3)CC2)cc(-c2c[nH]c3ncnc(N4CCOCC4)c23)c1` [Compound 6], the dTm in assay [1] is reported as 0.83 K; in assay [2] it was -2.13 K; in assay [3], 1.73 K; in assay [4], 2.92 K; in assay [5] it was 5.91 K; in assay [6] it was 4.32 K. The molecule also gave a dTm in assay [7] of 5.63 K.

On to `O=C(Nc1cccc(-c2c[nH]c3ncnc(N4CCOCC4)c23)c1)C1(C(=O)Nc2cccc3c2CCC3)CC1` [Compound 11], for which the dTm in assay [1] is given as -0.59 K; in assay [2] it was -2.54 K; in assay [3], 1.96 K; in assay [4] it was 4.66 K; in assay [5], 5.24 K; in assay [6], 5.02 K. In addition, in assay [7], the dTm worked out at 8.56 K.

Regarding `O=C(Nc1ccccc1)C1(C(=O)Nc2cccc(-c3c[nH]c4ncnc(N5CCOCC5)c34)c2)CC1` [Compound 12], the dTm is listed as 1.44 K in assay [1]; 1.99 K in assay [2]; 3.09 K in assay [3]; 3.53 K in assay [4]; 8.68 K in assay [5]; 5.09 K in assay [6]. In assay [7], this molecule gave a dTm of 7.72 K.

With `O=C(Nc1ccc(Cl)cc1)C1(C(=O)Nc2cccc(-c3c[nH]c4ncnc(N5CCOCC5)c34)c2)CC1` [Compound 13], the dTm in assay [1] amounted to 1.60 K; in assay [2], 0.45 K; in assay [3], 3.57 K; in assay [4], 8.33 K; in assay [5], 9.74 K; in assay [6], 7.83 K. Moreover, the dTm in assay [7] was determined as 6.46 K.

Take `Cc1ccc(NC(=O)C2(C(=O)Nc3cccc(-c4c[nH]c5ncnc(N6CCOCC6)c45)c3)CC2)cc1` [Compound 14]: the dTm is on record as 0.81 K in assay [1]; 0.0157 K in assay [2]; 4.17 K in assay [3]; 7.03 K in assay [4]; 5.81 K in assay [5]; 4.94 K in assay [6]. The same molecule yielded a dTm in assay [7] of 5.95 K.

For the molecule `CCc1ccc(NC(=O)C2(C(=O)Nc3cccc(-c4c[nH]c5ncnc(N6CCOCC6)c45)c3)CC2)cc1` [Compound 15], the dTm stood at 0.09 K in assay [1]; 0.0657 K in assay [2]; 0.00 K in assay [3]; 9.83 K in assay [4]; 5.20 K in assay [5]; 5.52 K in assay [6]. The dTm in assay [7] was found to be 4.66 K.

As to `COc1ccc(NC(=O)C2(C(=O)Nc3cccc(-c4c[nH]c5ncnc(N6CCOCC6)c45)c3)CC2)cc1` [Compound 16], the dTm was 0.0654 K in assay [1]; -0.51 K in assay [2]; 2.53 K in assay [3]; 5.86 K in assay [4]; 2.17 K in assay [5]; 1.74 K in assay [6]. Besides, the dTm in assay [7] stood at 4.89 K.

As for `O=C(Nc1cccc(-c2c[nH]c3ncnc(N4CCOCC4)c23)c1)C1(C(=O)Nc2ccc(F)c(F)c2)CC1` [Compound 17], the dTm in assay [1] was 1.14 K; in assay [2], -0.41 K; in assay [3], 3.85 K; in assay [4] it was 5.91 K; in assay [5] it was 10.37 K; in assay [6], 6.90 K. Besides, the dTm in assay [7] amounted to 7.72 K.

On to `O=C(Nc1cccc(-c2c[nH]c3ncnc(N4CCOCC4)c23)c1)C1(C(=O)Nc2ccc(F)c(Cl)c2)CC1` [Compound 18], for which the dTm is 1.28 K in assay [1]; 0.34 K in assay [2]; 0.43 K in assay [3]; 6.75 K in assay [4]; 12.35 K in assay [5]; 9.58 K in assay [6]. In assay [7], the dTm was 8.58 K.

As for `O=C(Nc1cccc(-c2c[nH]c3ncnc(N4CCOCC4)c23)c1)C1(C(=O)Nc2ccc(F)c(Br)c2)CC1` [Compound 19], the dTm in assay [1] is listed as 1.18 K; in assay [2], -0.18 K; in assay [3] it was 3.75 K; in assay [4], 7.42 K; in assay [5], 11.25 K; in assay [6], 9.18 K. In assay [7], this molecule came in with a dTm of 8.80 K.

With `Cc1cc(NC(=O)C2(C(=O)Nc3cccc(-c4c[nH]c5ncnc(N6CCOCC6)c45)c3)CC2)ccc1F` [Compound 20], the dTm in assay [1] is given as 1.48 K; in assay [2], -1.06 K; in assay [3], -2.83 K; in assay [4], 8.50 K; in assay [5], 12.42 K; in assay [6], 10.45 K. In assay [7], this molecule had a dTm of 8.74 K.

As to `COc1cc(NC(=O)C2(C(=O)Nc3cccc(-c4c[nH]c5ncnc(N6CCOCC6)c45)c3)CC2)ccc1F` [Compound 21], the dTm in assay [1] is given as 0.54 K; in assay [2] it was -1.04 K; in assay [3] it was 4.43 K; in assay [4], 4.67 K; in assay [5] it was 10.35 K; in assay [6], 8.27 K. Further, in assay [7], the dTm came out at 6.71 K.

Turning to `CC(C)(C)c1cccc(NC(=O)C2(C(=O)Nc3cccc(-c4c[nH]c5ncnc(N6CCOCC6)c45)c3)CC2)c1` [Compound 22], the dTm is -2.23 K in assay [1]; -1.08 K in assay [2]; 2.44 K in assay [3]; 5.91 K in assay [4]; 6.32 K in assay [5]; 9.68 K in assay [6]. The same molecule yielded a dTm in assay [7] of 4.67 K.

As to `O=C(Nc1cccc(-c2c[nH]c3ncnc(N4CCOCC4)c23)c1)C1(C(=O)Nc2ccc(F)cc2F)CC1` [Compound 23], the dTm in assay [1] was 0.67 K; in assay [2] it was -1.88 K; in assay [3], 3.92 K; in assay [4] it was 3.56 K; in assay [5], 6.01 K; in assay [6], 5.31 K. Moreover, the dTm in assay [7] was 7.18 K.
